Key:
SH-SY5Y cells = assay: Neurite growth detection, Aβ-treated SH-SY5Y cells; type: cell-based; details: 1 μM Aβ, 24 h
Description: The SH-SY5Y cell line was purchased from the Peking Union Hospital Cell Bank, cultured in a humidified incubator under 5% CO2 and 37° C., A MTT cell viability assay was performed according to the instructions in the kit (Sigma). […] The optical density values were determined at a wavelength of 563 nm (Synergy H4, Bio Tek). The neurite growth test was performed according to the method described in the prior documents (see, for example, Wang, Y. J., et al., Effects of proNGF on neuronal viability, neurite growth and amyloid-beta metabolism. Neurotox Res, 2010, 17(3): p. 257-67).

[1] = system: synapse associated proteins; assay: Western blot of synapse associated proteins; type: in vivo; details: AD mice vs control group
Description: (§1) APPswe/PS1DE9 (AD) transgenic mice were purchased from Jackson Laboratory, USA (No. 005864), raised in the SPF grade animal house of The Third Affiliated Hospital of The Third Military Medical University. All the processes and correlated experiments applied to the mice were approved and filed with the Animal Ethics Committee of the Third Military Medical University. […] Alternatively, the daily dose for the prophylactic group may be 6.4 mg/kg, and the daily dose for the treatment group may be 12.8 mg/kg. […]
(§2) The enzymes related with Aβ formation and degradation their molecule levels, the levels of hyperphosphprylated Tau proteins, and the levels of synaptic plasticity correlated proteins were all detected with Western blot. […] The blotting was detected with the following antibodies: APP C terminal antibody (171610, Millipore), BACE1 antibody (Millipore), Aβ antibody (6E10, Abcam), Nepriiysin antibody (Millipore), RAGE antibody (Millipore), LRP antibody (5A6, Calbiochem), IDE antibody (epitomics), phosphorylated Tau protein antibody, including pS396 (Signalway), pT231 (Signalway), pS199 (epitomics), pS262 (Abcam), SNAP25 antibody (Millipore), Synaptophysin antibody (Millipore), Synapsin I antibody (Millipore), VAMP1 antibody (Millipore), PSD95 antibody (Millipore), F-actin antibody (Actin) (Sigma-Aldrich). […]

[2] = system: dendritic spines of pyramidal cells in hippocampus CA1; assay: Golgi staining, dendritic spines; type: in vivo; details: AD mice
Description: (§3) APPswe/PS1DE9 (AD) transgenic mice were purchased from Jackson Laboratory, USA (No. 005864), raised in the SPF grade animal house of The Third Affiliated Hospital of The Third Military Medical University. All the processes and correlated experiments applied to the mice were approved and filed with the Animal Ethics Committee of the Third Military Medical University. […] Alternatively, the daily dose for the prophylactic group may be 6.4 mg/kg, and the daily dose for the treatment group may be 12.8 mg/kg. Administration from 3-month old to 9-month old is the prophylactic test, and administration from 9-month old to 12-month old is the therapeutic test After reaching a stated time, the mice in each group received behavioral tests according to the method in the follows. Three mice in each group were taken for Golgi staining. The remaining mice were overly anaesthetized to receive brain anatomy. One side of the cerebral hemisphere was frozen and then for a biochemical analysis, and the other side of the cerebral hemisphere was fixed with 4% paraform for a histological analysis.
After overly anesthetized, the animals received heart perfusions with normal saline containing 0.5% nitrous acid, 4% paraform, and Golgi dye liquor, successively. […]

RAGE = assay: Western blot of Aβ metabolizing enzymes in brain: RAGE; type: in vivo; details: AD mice brain
Description: as §1, §2

[3] = system: Aβ induced oxidative stress; assay: ROS detection; type: cell-based
Description: The ROS detection was performed according to the scheme provided by the manufacturer (Cell Biolabs Inc).

NEP = assay: Western blot of Aβ metabolizing enzymes in brain: NEP; type: in vivo; details: AD mice brain
Description: as §1, §2

Aβ, CTFβ = assay: Western blot of Aβ and CTFβ in brain; type: in vivo; details: AD mice
Description: as §1, §2

IDE = assay: Western blot of Aβ metabolizing enzymes in brain: IDE; type: in vivo; details: AD mice brain
Description: as §1, §2

β-secretase (BACE1) = biological target: T1, β-secretase (BACE1) (Mus musculus, UniProt P56818); assay: β-secretase activity in brain tissues (kit); type: in vivo; details: AD mice brain
T1 construct: The proteins in the brain tissue homogenates were extracted with a RIP A buffer solution; from tissue; host or cells: brain of APPswe/PS1DE9 mice
T1 sequence (P56818 46-501): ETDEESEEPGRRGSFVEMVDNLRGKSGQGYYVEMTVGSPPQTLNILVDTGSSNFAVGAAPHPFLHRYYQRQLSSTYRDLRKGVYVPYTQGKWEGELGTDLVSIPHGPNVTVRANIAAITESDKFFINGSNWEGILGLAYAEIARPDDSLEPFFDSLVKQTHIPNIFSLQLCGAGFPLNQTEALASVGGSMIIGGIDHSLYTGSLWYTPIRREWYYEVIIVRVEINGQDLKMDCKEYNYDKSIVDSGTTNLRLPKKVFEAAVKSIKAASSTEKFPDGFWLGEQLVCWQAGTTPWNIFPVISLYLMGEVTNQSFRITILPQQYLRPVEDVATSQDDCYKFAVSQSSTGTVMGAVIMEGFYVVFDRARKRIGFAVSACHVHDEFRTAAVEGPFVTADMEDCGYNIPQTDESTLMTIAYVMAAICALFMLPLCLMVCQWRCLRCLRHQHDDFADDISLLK
Description: as §3
(§4) After homogenating the frozen brain tissues, extraction was conducted with TBS, SDS and formic acid successively. The TBS, SDS and formic acid extracts represent soluble Aβ, loosen senile plaques and compact senile plaques, respectively. […]

[4] = system: neural inflammatory reactions; assay: Neural inflammatory reaction in brain (ELISA of IL-6, IL-1β, INF-γ, TNF-β); type: in vivo; details: AD mice
Description: as §3, §4

[5] = system: cerebral ischemia-reperfusion injury; details: cited from earlier work
Aβ42 = Aβ42 (Homo sapiens, UniProt P05067); assay: Thioflavin T fluorescence test, inhibition of Aβ aggregation; type: biochemical; details: 10 μM Aβ 42, Edaravone 0-100 μM, 37° C., two days
Chain of Aβ42 (P05067 672-713 limits assumed): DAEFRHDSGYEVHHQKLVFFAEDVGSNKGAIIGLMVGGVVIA

N2a/Swe.Δ9 cells = details: cited from earlier work
Aβ 40, Aβ 42 = assay: ELISA of Aβ 40, Aβ 42 in brain extracts (TBS, SDS, FA); type: in vivo; details: AD mice, 2% SDS and FA extracts
Description: as §3, §4

neurons = assay: Neuron apoptosis in the brain of AD mice; type: in vivo
Description: as §3

SMILES: CC1=NN(c2ccccc2)C(=O)C1 [Edaravone, 3-methyl-1-phenyl-2-pyrazolin-5-one]
- all-trans-Retinoic acid induced neurite length (SH-SY5Y cells): neurite length also increases
- expressions of the synapse associated proteins [1]: much higher than in the control group
- numbers of the dendritic spines [2]: also significantly increased
- influence on RAGE (RAGE): no influence
- Aβ induced oxidative stress (ROS test) [3]: reverse the Aβ induced oxidative stress
- influence on NEP (NEP): no influence
- formation of Aβ in the brain (Western blot) (Aβ, CTFβ): reduce the formation of Aβ in the brain
- formation of CTFβ (Western blot) (Aβ, CTFβ): decrease the formation of CTFβ
- influence on IDE (IDE): no influence
- activity of β-secretase (BACE1) (β-secretase (BACE1)): significant decrease
- neural inflammatory reaction level in the brain ([4]; p.o.): significantly reduced, too
- neural inflammatory reaction in the brain ([4]; prophylactic and therapeutic test): all reduced significantly
- cerebral ischemia-reperfusion injury area ([5]; previous studies): reduce cerebral ischemia-reperfusion injury area
- gene expression of the Fas/FasL signaling pathway ([5]; transient focal ischemia in rats): suppress the gene expression of the Fas/FasL signaling pathway
- inhibition of Aβ aggregation (thioflavin T) (Aβ42): effectively inhibit Aβ aggregation in a dose-dependent manner
- mitochondrion dependant apoptosis pathway (N2a/Swe.Δ9 cells): inhibit the mitochondrion dependant apoptosis pathway
- Aβ 40, Aβ 42 levels in brain extracts (Aβ 40, Aβ 42): significantly reduce the levels of Aβ at different, aggregation states
- neuron apoptosis in the brain (neurons): significantly reduce the neuron apoptosis
